Patent US9981973B2, “Tricyclic compounds as inhibitors of immunosuppression mediated by tryptophan metabolization” (NewLink Genetics Corporation, priority 2013, dated 2018)

What follows are compounds tested against purified human TDO protein (Homo sapiens (Human), UniProt P48775) (assay: Enzymatic TDO assay).
Type: biochemical
Experimental: Differently from the IDO activity assay, no methylene blue is added to the assay. The inhibitors were initially diluted in DMSO at 100 mM and were diluted in potassium phosphate 50 mM, added to the reaction mixture at final concentrations raging from 30 μM to 5 nM and preincubated with the enzyme for 5 min at 25° C. The reaction was started by addition of L-tryptophan to 20 μM and incubated 15 min at 37° C. The reaction was stopped by addition of 0.5 vol of 30% trichloroacetic acid and incubated 30 min at 60° C. to hydrolyze N-formylkynurenine to kynurenine. The reaction was centrifuged at 3400 g for 5 min to remove precipitated protein and the supernatant was reacted with 2% (w/v) of p-dimethylaminobenzaldehyde in acetic acid. The reaction was incubated 10 min at 25° C. and read at 480 nm in a spectrophotometer. Control samples with no TDO inhibitor, or with no TDO enzyme were used as controls to set the parameters for the non-linear regressions necessary for determination of the IC50 for each compound. Nonlinear regressions and determination of the IC50 values were performed using the GraphPad Prism 4 software.

Sequence of purified human TDO protein (P48775 whole entry): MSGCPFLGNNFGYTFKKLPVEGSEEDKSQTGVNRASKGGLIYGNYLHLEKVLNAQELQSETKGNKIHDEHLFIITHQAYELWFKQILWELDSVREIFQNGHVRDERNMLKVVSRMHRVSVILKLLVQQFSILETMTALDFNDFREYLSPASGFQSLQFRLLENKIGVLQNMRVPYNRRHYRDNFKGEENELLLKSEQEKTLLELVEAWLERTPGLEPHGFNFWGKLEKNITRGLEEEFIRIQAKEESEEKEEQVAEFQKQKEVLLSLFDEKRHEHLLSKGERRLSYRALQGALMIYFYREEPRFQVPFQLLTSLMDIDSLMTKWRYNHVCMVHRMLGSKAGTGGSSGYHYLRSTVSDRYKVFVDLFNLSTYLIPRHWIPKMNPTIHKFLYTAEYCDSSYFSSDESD

IC50, > 10 µM:
O=C(CC1c2ccccc2-c2cnnn21)C1CCC(F)(F)CC1 (stereo not drawn) [Compound 54, 2-(8H-[1,2,3]triazolo[5,1-a]isoindol-8-yl)-1-(4,4-difluorocyclohexyl)ethan-1-one]
OC(CC1c2ccccc2-c2nncn21)C1CCCCC1 (stereo not drawn) [Compound 69, 2-(5H-[1,2,4]triazolo[3,4-a]isoindol-5-yl)-1-cyclohexylethan-1-ol]
O=C(CC1c2ccccc2-c2nncn21)C1CCCCC1 (stereo not drawn) [Compound 43, 2-(5H-[1,2,4]triazolo[3,4-a]isoindol-5-yl)-1-cyclohexylethan-1-one]
